From patent US10219516B2, “Molecules having pesticidal utility, and intermediates, compositions, and processes, related thereto” (priority 2015, dated 2019) come the findings set out here.

What all share (assay type): in vivo
In experiment [1] the test system is Cabbage Looper (Trichoplusia ni, TRIPNI). Briefly: Bioassay on Cabbage Looper (CL), 128-well diet tray assay. The note with it: Trichoplusia ni. Put shortly:
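Test molecule is dissolved in 90:10 acetone-water and applied at 50 μg/cm^2 onto artificial diet, then dried. One to five second-instar larvae go into each of eight wells. Trays, sealed but vented, stay at 25° C., 14:10 light-dark, five to seven days, after which mortality is averaged.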

Experiment [2] deals with Beet Armyworm (Spodoptera exigua, LAPHEG). Briefly: Bioassay on Beet Armyworm (BAW), 128-well diet tray assay. Put shortly:
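Percent mortality, averaged across eight replicate wells, was scored after five to seven days at 25° C. under a 14:10 light-dark cycle. Each well's diet carried 50 μg/cm^2 of the dried test molecule and held one to five second instar larvae.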

The test system of experiment [3] is Yellow Fever Mosquito (Aedes aegypti, AEDSAE). Briefly: Bioassay on Yellow Fever Mosquito (YFM), 96-well plate larval assay. As to conditions: for YFM (Biological Results, rating): Species YFM (Yellow Fever Mosquito); for YFM rating: Yellow Fever Mosquito, 96-well plate larval assay. In short, it runs like this: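 Each well was scored for mortality after 3 days at room temperature under a non-evaporative lid. Test molecules came from DMSO masters (4000 ppm stock) diluted with water/acetone 90:10 and dispensed into six replicate plates, which were then infested with roughly 1-day-old larvae in liver-powder water.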

Setting [4] is: Species CL (Cabbage Looper), read-out: CL (Biological Results, rating).
Setting [5] is: Species BAW (Beet Armyworm), read-out: BAW (Biological Results, rating).
Where [6] appears, read: Cabbage Looper, 128-well diet tray assay, read-out: CL rating.
[7] abbreviates: Beet Armyworm, 128-well diet tray assay, read-out: BAW rating.

SMILES strings stand for the structures. Like-named read-outs stand apart in the source and are kept apart here.

In the case of `CN(C(=O)c1cccc(NC(=O)[C@H]2[C@H](c3cc(Cl)c(Cl)c(Cl)c3)C2(Cl)Cl)c1F)c1ccccc1` (relative stereo) [F71, trans-3-(2,2-Dichloro-3-(3,4,5-trichlorophenyl)cyclopropane-1-carboxamido)-2-fluoro-N-methyl-N-phenylbenzamide], the pest or weed control at 50 µg/cm2 in experiment [1] (setting [4]) and in experiment [2] (setting [5]) was 50 to 100% throughout. Further, the “YFM (Biological Results, rating)” value in experiment [3] was “B (More than 0-Less than 80)”.

As for `O=C(Nc1ccc(F)cc1[N+](=O)[O-])c1cc(NC(=O)[C@H]2[C@H](c3cc(Cl)cc(Cl)c3)C2(Cl)Cl)ccc1Cl` (relative stereo) [F348, trans-2-Chloro-5-(2,2-dichloro-3-(3,5-dichlorophenyl)cyclopropane-1-carboxamido)-N-(4-fluoro-2-nitrophenyl)benzamide], the pest or weed control at 50 µg/cm2 in experiment [1] (setting [4]) and in experiment [2] (setting [5]) was 50 to 100% in each case. For the same compound, the “YFM (Biological Results, rating)” value in experiment [3] is reported as “A (80-100)”.

For the compound `O=C(Nc1ncc(F)cc1F)c1cc(NC(=O)[C@H]2[C@H](c3ccc(Cl)c(Cl)c3)C2(Cl)Cl)ccc1Cl` [F310, 2-Chloro-5-((1R,3R)-2,2-dichloro-3-(3,4-dichlorophenyl)cyclopropane-1-carboxamido)-N-(3,5-difluoropyridin-2-yl)benzamide], the pest or weed control at 50 µg/cm2 in experiment [1] (setting [4]) and in experiment [2] (setting [5]) was 50 to 100% each time. Also, the “YFM (Biological Results, rating)” value in experiment [3] is reported as “A (80-100)”.

With `CN(C(=O)c1cc(NC(=O)[C@H]2[C@H](c3cccc(C(F)F)c3)C2(Cl)Cl)ccc1Cl)c1ccc(F)cc1` (relative stereo) [F598, 2-Chloro-5-(trans-2,2-dichloro-3-(3-(difluoromethyl)phenyl)cyclopropane-1-carboxamido)-N-(4-fluorophenyl)-N-methylbenzamide], the pest or weed control at 50 µg/cm2 in experiment [1] (setting [6]) and in experiment [2] (setting [7]) was 50 to 100% each time. Also, the YFM rating entry in experiment [3] is reported as “A (80-100)”.

With `CN(C(=O)c1cccc(NC(=O)[C@H]2[C@H](c3cc(Cl)cc(Cl)c3)C2(Cl)Cl)c1F)c1ccccc1` (relative stereo) [F69, trans-3-(2,2-Dichloro-3-(3,5-dichlorophenyl)cyclopropane-1-carboxamido)-2-fluoro-N-methyl-N-phenylbenzamide], the pest or weed control at 50 µg/cm2 in experiment [1] (setting [4]) and in experiment [2] (setting [5]) was 50 to 100% each time. For the same compound, in experiment [3], the “YFM (Biological Results, rating)” value is given as “B (More than 0-Less than 80)”.

Regarding `O=C(Nc1ccccc1)c1cc(NC(=O)[C@H]2[C@H](c3cc(Cl)cc(Cl)c3)C2(Cl)Cl)cc(Cl)c1Cl` (relative stereo) [F246, trans-2,3-Dichloro-5-(2,2-dichloro-3-(3,5-dichlorophenyl)cyclopropane-1-carboxamido)-N-phenylbenzamide], the pest or weed control at 50 µg/cm2 in experiment [1] (setting [4]) and in experiment [2] (setting [5]) was 50 to 100% in each case. Also, in experiment [3], the “YFM (Biological Results, rating)” value is recorded as “A (80-100)”.

Turning to `O=C(Nc1ccc(F)cc1F)c1cc(NC(=O)[C@H]2[C@H](c3ccc(C(F)F)c(Cl)c3)C2(Cl)Cl)ccc1Cl` (relative stereo) [F562, 2-Chloro-5-(trans-2,2-dichloro-3-(3-chloro-4-(difluoromethyl)phenyl)cyclopropane-1-carboxamido)-N-(2,4-difluorophenyl)benzamide], the pest or weed control at 50 µg/cm2 in experiment [1] (setting [6]) and in experiment [2] (setting [7]) was 50 to 100% in each case. In addition, the YFM rating result in experiment [3] was “A (80-100)”.

Turning to `COC(=O)CNc1ccc(NC(=O)c2cc(NC(=O)[C@H]3[C@H](c4cc(Cl)cc(Cl)c4)C3(Cl)Cl)ccc2Cl)c(C)c1` (relative stereo) [F288, trans-methyl (4-(2-chloro-5-(2,2-dichloro-3-(3,5-dichlorophenyl)cyclopropane-1-carboxamido)benzamido)-3-methylphenyl)glycinate], the pest or weed control at 50 µg/cm2 in experiment [1] (setting [4]) and in experiment [2] (setting [5]) was 50 to 100% each time. The “YFM (Biological Results, rating)” value in experiment [3] is reported as “A (80-100)”.

`CN1C(=O)Cc2cc(NC(=O)c3cc(NC(=O)[C@H]4[C@H](c5cc(Cl)cc(Cl)c5)C4(Cl)Cl)ccc3Cl)ccc21` (relative stereo) [F459, 2-Chloro-5-(trans)-(2,2-dichloro-3-(3,5-dichlorophenyl)cyclopropane-1-carboxamido)-N-(1-methyl-2-oxoindolin-5-yl)benzamide]: the pest or weed control at 50 µg/cm2 in experiment [1] (setting [6]) and in experiment [2] (setting [7]) was 50 to 100% throughout. In experiment [3], the YFM rating result is recorded as “A (80-100)”.

As to `O=C(Nc1ccc(F)cc1F)c1cc(NC(=O)[C@H]2[C@H](c3cc(Cl)c(Cl)c(Cl)c3)C2(Cl)Cl)ccc1Cl` [F281, 2-Chloro-5-((1R,3R)-2,2-dichloro-3-(3,4,5-trichlorophenyl)cyclopropane-1-carboxamido)-N-(2,4-difluorophenyl)benzamide], the pest or weed control at 50 µg/cm2 in experiment [1] (setting [4]) and in experiment [2] (setting [5]) was 50 to 100% throughout. Also, the “YFM (Biological Results, rating)” value in experiment [3] is reported as “A (80-100)”.

Turning to `O=C(Nc1cncc(NO)c1)c1cc(NC(=O)[C@H]2[C@H](c3ccc(Cl)c(Cl)c3)C2(Cl)Cl)ccc1Cl` [F526, 2-Chloro-5-((1R,3R)-2,2-dichloro-3-(3,4-dichlorophenyl)cyclopropane-1-carboxamido)-N-(5-(hydroxyamino)pyridin-3-yl)benzamide], the pest or weed control at 50 µg/cm2 in experiment [1] (setting [6]) and in experiment [2] (setting [7]) was 50 to 100% throughout. In experiment [3], the YFM rating entry was “A (80-100)”.

`COCC1(C(=O)Nc2ccc(NC(=O)c3cc(NC(=O)[C@H]4[C@H](c5cc(Cl)cc(Cl)c5)C4(Cl)Cl)ccc3Cl)cc2)CC1` (relative stereo) [PF161, trans-2-Chloro-5-(2,2-dichloro-3-(3,5-dichlorophenyl)cyclopropane-1-carboxamido)-N-(4-(1-(methoxymethyl)cyclopropane-1-carboxamido)phenyl)benzamide]: the pest or weed control at 50 µg/cm2 in experiment [1] (setting [6]) and in experiment [2] (setting [7]) was 50 to 100% throughout. Further, the YFM rating result in experiment [3] was “A (80-100)”.

Regarding `N#Cc1ccc(Br)cc1NC(=O)c1cc(NC(=O)[C@H]2[C@H](c3cc(Cl)cc(Cl)c3)C2(Cl)Cl)ccc1Cl` (relative stereo) [F303, N-(5-Bromo-2-cyanophenyl)-2-chloro-5-(trans-2,2-dichloro-3-(3,5-dichlorophenyl)cyclopropane-1-carboxamido)benzamide], the pest or weed control at 50 µg/cm2 in experiment [1] (setting [4]) and in experiment [2] (setting [5]) was 50 to 100% in each case. Moreover, the “YFM (Biological Results, rating)” value in experiment [3] is “A (80-100)”.

With `O=C(Nc1cc2cc[nH]c2cn1)c1cc(NC(=O)[C@H]2[C@H](c3cc(Cl)cc(Cl)c3)C2(Cl)Cl)ccc1Cl` (relative stereo) [F474, 2-Chloro-5-(trans)-(2,2-dichloro-3-(3,5-dichlorophenyl)cyclopropane-1-carboxamido)-N-(1H-pyrrolo[2,3-c]pyridin-5-yl)benzamide], the pest or weed control at 50 µg/cm2 in experiment [1] (setting [6]) and in experiment [2] (setting [7]) was 50 to 100% throughout. Further, the YFM rating result in experiment [3] is given as “A (80-100)”.

As to `C=C(F)c1c(F)cnc(NC(=O)c2cc(NC(=O)[C@H]3[C@H](c4cc(Cl)cc(Cl)c4)C3(Cl)Cl)ccc2Cl)c1F` (relative stereo) [F394, 2-Chloro-5-(trans-2,2-dichloro-3-(3,5-dichlorophenyl)cyclopropane-1-carboxamido)-N-(3,5-difluoro-4-(1-fluorovinyl)pyridin-2-yl)benzamide], the pest or weed control at 50 µg/cm2 in experiment [1] (setting [6]) and in experiment [2] (setting [7]) was 50 to 100% in each case. In experiment [3], the YFM rating entry is recorded as “A (80-100)”.

`CN(C(=O)c1cc(NC(=O)[C@@H]2[C@@H](c3cc(Cl)cc(Cl)c3)C2(Cl)Cl)ccc1Cl)c1ccc(F)cc1` [F170, 2-Chloro-5-((1S,3S)-2,2-dichloro-3-(3,5-dichlorophenyl)cyclopropane-1-carboxamido)-N-(4-fluorophenyl)-N-methylbenzamide]: the pest or weed control at 50 µg/cm2 in experiment [1] (setting [4]) and in experiment [2] (setting [5]) was 50 to 100% throughout. Further, in experiment [3], the “YFM (Biological Results, rating)” value is “A (80-100)”.

On to `Cc1cc([C@H]2[C@H](C(=O)Nc3ccc(Cl)c(C(=O)Nc4ccc(F)cc4)c3)C2(Cl)Cl)cc(Cl)c1Cl` (relative stereo) [F123, trans-2-Chloro-5-(2,2-dichloro-3-(3,4-dichloro-5-methylphenyl)cyclopropane-1-carboxamido)-N-(4-fluorophenyl)benzamide], for which the pest or weed control at 50 µg/cm2 in experiment [1] (setting [4]) and in experiment [2] (setting [5]) was 50 to 100% in each case. Besides, the “YFM (Biological Results, rating)” value in experiment [3] is on record as “B (More than 0-Less than 80)”.

Regarding `CNc1ccc(NC(=O)c2cc(NC(=O)[C@H]3[C@H](c4cc(Cl)c(Cl)c(Cl)c4)C3(Cl)Cl)ccc2Cl)c(C)c1` (relative stereo) [F223, trans-2-Chloro-5-(2,2-dichloro-3-(3,4,5-trichlorophenyl)cyclopropane-1-carboxamido)-N-(2-methyl-4-(methylamino)phenyl)benzamide], the pest or weed control at 50 µg/cm2 in experiment [1] (setting [4]) and in experiment [2] (setting [5]) was 50 to 100% throughout. In experiment [3], the “YFM (Biological Results, rating)” value is “A (80-100)”.

For `O=C(Nc1ccc(F)cc1F)c1cc(NC(=O)[C@H]2[C@H](c3ccc(Cl)c(Cl)c3)C2(Cl)Cl)ccc1Cl` [F211, 2-Chloro-5-((1R,3R)-2,2-dichloro-3-(3,4-dichlorophenyl)cyclopropane-1-carboxamido)-N-(2,4-difluorophenyl)benzamide], the pest or weed control at 50 µg/cm2 in experiment [1] (setting [4]) and in experiment [2] (setting [5]) was 50 to 100% in each case. Further, the “YFM (Biological Results, rating)” value in experiment [3] was “A (80-100)”.
